Assay results reported in US20120129818A1, “Compositions and Methods for Treatment of Cardiovascular Disease” (priority 2009, published 2012).

Experiments:
human MPO = target: T1, human MPO (Homo sapiens, UniProt P05164); test: Myeloperoxidase (MPO) activity assay with tetramethyl benzidine (TMB) substrate; type: biochemical; details: for Ki: 50 mM sodium acetate buffer pH 5.6, read-out: Ki (inhibitory values of MPO)
T1 construct: purchased Sigma-Aldrich
Description: Various methods of measuring a reduction in MPO activity are known to those of ordinary skill in the art and can be used in accordance with the present invention. For example, in one embodiment, MPO activity can be measured by combining an amount of an MPO enzyme, or a sample containing an MPO enzyme, with H2O2, a tetramethyl benzidine (TMB) substrate, and an MPO inhibitor (e.g., a compound of the present invention), and then measuring the optical density of the resulting product.
Typically, the reaction mixture (200 μl) contained 20 mU human MPO (Sigma-Aldrich, St. Louis, Mo.), 400 nmol H2O2, 1.6 μmol of TMB, and varying concentrations of methylenedioxyphenyl ferulate (Formula (II)) or ferulylproline (Formula (XVI)).
The reaction was performed in a volume of 200 μl with 50 mM sodium acetate buffer at pH 5.6. The reaction was initiated by adding MPO and the optical density of the product formed was then read at 650 nm in a microplate reader at various time points.

[1] = Chlorotaurine formation (HOCl-mediated chlorination of taurine, TNB readout at 412 nm); details: various concentrations, 37° C. for 10 min, absorption 412 nm (FIG. 8)
Method: Chlorotaurine is formed by the oxidation of taurine by the chlorinating oxidant hypochlorous acid (HOCl), which is formed by MPO-mediated 2-electron oxidation of chloride by H2O2. To determine if the compounds of the present invention were capable of inhibiting the formation of chlorotaurine, a reaction mixture was produced that contained 50 uL of 150 mM taurine, various concentrations of methylenedioxyphenyl ferulate (Formula (II)) or ferulylproline (Formula (XVI)), and 250 μL of hypochlorous acid in sodium phosphate buffer. The mixture was incubated at 37° C. for 10 min followed by addition of 60 μL of 40 mM thionitrobenzoic acid (TNB). The whole solution was made up to 1.5 mL and absorption was measured at 412 nm using a UV-Visible spectrophotometer. […] Furthermore, although both of these compounds react differently toward chlorotaurine oxidation, they seem to show specificity toward MPO inhibition.

MPO = target: T2, MPO (Homo sapiens, UniProt P05164); test: Analysis of whether the compounds act as MPO substrates (UV-Visible spectrum, TLC); type: biochemical
T2 sequence (P05164 49-745): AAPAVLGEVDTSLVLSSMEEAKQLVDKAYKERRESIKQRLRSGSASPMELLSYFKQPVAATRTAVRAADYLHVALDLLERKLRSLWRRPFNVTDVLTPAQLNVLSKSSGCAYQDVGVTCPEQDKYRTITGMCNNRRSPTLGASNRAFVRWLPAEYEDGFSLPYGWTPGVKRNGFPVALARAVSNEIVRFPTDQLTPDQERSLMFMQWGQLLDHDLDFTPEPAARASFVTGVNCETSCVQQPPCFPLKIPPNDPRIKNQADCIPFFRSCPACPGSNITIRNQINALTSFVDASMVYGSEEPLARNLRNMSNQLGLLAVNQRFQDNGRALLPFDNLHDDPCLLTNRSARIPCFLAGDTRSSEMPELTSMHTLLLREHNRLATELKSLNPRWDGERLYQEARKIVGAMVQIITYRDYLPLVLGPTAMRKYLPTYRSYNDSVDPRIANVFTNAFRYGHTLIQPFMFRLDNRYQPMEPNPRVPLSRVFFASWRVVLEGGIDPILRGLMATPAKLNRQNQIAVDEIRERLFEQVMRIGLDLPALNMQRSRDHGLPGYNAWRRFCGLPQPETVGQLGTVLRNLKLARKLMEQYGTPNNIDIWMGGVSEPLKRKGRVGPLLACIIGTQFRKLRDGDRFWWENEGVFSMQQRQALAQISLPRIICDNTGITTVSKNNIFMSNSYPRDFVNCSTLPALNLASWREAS
Method: It is known that MPO acts on a variety of substrates and, as such, it was thought that it may be theoretically possible that methylenedioxyphenyl ferulate (Formula (II)) and ferulylproline (Formula (XVI)) could be acting as MPO substrates and competitively masking the formation of products from the added substrates in the above-described experiments. […] In these experiments, a reaction mixture was produced that contained 720 μL of sodium acetate buffer, 100 μL of 100 mM H2O2, 100 μL of MPO enzyme with added compounds of the present invention, and a total volume made up to 1 mL. Upon analysis of this reaction mixture, however, there was no indication of any colored product even when the reaction mixture contained only the inhibitor and not the MPO substrate. To strengthen this finding, thin layer chromatography (TLC) was run with the MPO assay solution and inhibitor (50% ethylacetate:hexane) and spot identification was done in an iodine chamber.

[2] = test system: xanthine/xanthine oxidase; test: Superoxide mediated cytochrome c reduction catalyzed by xanthine/xanthine oxidase; type: biochemical; details: different concentrations of inhibitor, 549 nm (FIG. 7)
Method: The reaction mixture contained 250 μL of 5 mM hypoxanthine (1.25 mM final concentration), 100 μL of cytochrome c in buffer, 10 μL of xanthine oxidase enzyme and different concentrations of inhibitor. The final volume was made up to 1 mL with phosphate buffer. The oxidation was monitored by scanning wavelengths between 500 nm to 600 nm with five measurements. The cycle scanning time was 30 seconds.

[3] = test system: human low-density lipoprotein (LDL); test: Cu (II) induced LDL oxidation, conjugated diene formation at 234 nm; type: biochemical; details: 10 and 25 μM compound, 100 μg LDL protein, 5 μM Cu (II), pH 7.4, room temperature (FIG. 6)
Method: To determine the effect of the presently-disclosed compounds on low-density lipoprotein (LDL) oxidation, standard LDL oxidation reactions were carried out in the presence of methylenedioxyphenyl ferulate (FMDP; Formula (II)) and ferulylproline (Formula (XVI). Briefly, the in vitro oxidation reaction of LDL was carried out at room temperature in potassium phosphate buffer, pH 7.4. The reaction mixture contained 100 μg LDL protein and 5 μM Cu (II) with a final volume of 1 mL. The oxidation of LDL was followed by measuring the formation of a conjugated diene at 234 nm for a total of 300 min using a spectrophotometer. The time course of Cu (II) induced LDL oxidation was then performed. […] The increase in the oxidation of LDL in presence of 10 μM and 25 μM ferulylproline was attributed to the formation of Cu (II)-ferulylproline complex which would act as a pro-oxidant of LDL. Oxidation of LDL lipid by Cu (II) mediated oxidation both in the absence of any inhibitor and in the presence of 10 μM and 25 μM of methylenedioxyphenyl ferulate and ferulylproline was performed by monitoring the oxidation for 200 minutes.

SMILES | Ki (human MPO) [µM] | Inhibition of MPO activity (human MPO; varying concentrations, OD 650 nm (FIGS. 4 and 5)) | Inhibition of chlorotaurine formation [1] | Product formation during the MPO reaction by TLC / MPO substrate behaviour (MPO; MPO assay solution and inhibitor, 50% ethylacetate:hexane, iodine chamber) | Product formation in UV-Visible spectrum between 200 to 700 nm with and without MPO (MPO; sodium acetate buffer, H2O2, MPO enzyme, no MPO substrate (FIGS. 9 and 10)) | Inhibition of superoxide mediated cytochrome c reduction [2] | Effect on Cu (II) induced LDL oxidation [3]
COc1cc(/C=C/C(=O)N2CCCC2C(=O)O)ccc1O (centres unmarked) [ferulylproline] | 4 | significantly inhibited MPO | did not cause any inhibition | do not act as an MPO substrate | failed to show any product | inhibited the reaction | acted as a pro-oxidant reducing the lag time
COc1cc(/C=C/C(=O)Oc2ccc3c(c2)OCO3)ccc1O [methylenedioxyphenyl ferulate] | 8.5 | – | – | – | – | – | –
